Where a SMILES comes first, the peptide text is derived from it. [ ]: non-standard residue; d: D form. The star is where a group is joined. Cbz = O=C(OCc1ccccc1)*
Columns and labels:
[1] = target: T1, bombesin receptor of mouse Swiss 3T3 fibroblast cells (Mus musculus, UniProt P21729); assay: Test (a): in vitro binding assay, displacement of [I125]GRP; conditions: ambient temperature, 1 hour
T1 construct: the bombesin receptor of mouse Swiss 3T3 fibroblast cells; endogenous in cells; host or cells: mouse Swiss 3T3 fibroblast cells
Method: (a) An in vitro binding assay which assesses the ability of a test compound to displace radiolabelled gastrin releasing peptide ([I^125 ]GRP) from the bombesin receptor of mouse Swiss 3T3 fibroblast cells. The test is similar to that described by I. Zachary and E. Rozengurt, Proc. Nat. Acad. Sci. U.S.A., 1985, 82, 7616, except that the cells are incubated at ambient temperature for 1 hour;

[2] = test system: mouse Swiss 3T3 fibroblast cells; assay type: cell-based; conditions: 3 h
Method: (b) An in vitro assay which assesses the ability of a test compound to inhibit the Neuromedin C stimulated mitogenesis of mouse Swiss 3T3 fibroblast cells as determined by the uptake of [^3 H]-thymidine. The test is similar to those described by N. Corps., L. Rees and K. Brown, Biochem. Journal, 1985, 231, 781 and I. Zachary and E. Rozengurt, Proc. Nat. Acad. Sci. U.S.A., 1985, 82, 7616, except that GRP (18-27) (0.2 or 0.4 nM) was used to stimulate growth and the test compounds were dissolved in an assay medium containing 0.1% bovine serum albumin and 0.4% dimethylsulphoxide and […]

[3] = test system: bombesin-induced stimulation of the secretion of the enzyme amylase; conditions: rat, in vivo
Method: (c) An in vivo test involving the measurement of the antagonism of the bombesin-induced stimulation of the secretion of the enzyme amylase into the pancreatic duct of the rat by a test compound administered orally, sub-cutaneously or intravenously. Bombesin and the test compound can be administered concomitantly or the test compound can be predosed at any convenient interval, for example 30, 60, 90, 120, 150 or 180 minutes, before bombesin is dosed. Amylase was measured by analysis of the conversion of starch into maltose, on incubation of the starch/amylase mixture at 30° C. for 15 minutes, using a spectrophotometric assay as originally described by P. Bernfield in `Methods in Enzymology` Vol. I, p17 (Editors Colowick and Kaplan, Academic Press, New York, 1955). Bombesin (5 micrograms/kg, intravenously) causes a large, but submaximal, increase of amylase secretion within 30 minutes.

[4] = test system: bombesin-induced hypothermia; conditions: rat; cited from earlier work
[5] = test system: guinea pig pancreatic acini; conditions: cited from earlier work

T1 sequence (P21729 whole entry): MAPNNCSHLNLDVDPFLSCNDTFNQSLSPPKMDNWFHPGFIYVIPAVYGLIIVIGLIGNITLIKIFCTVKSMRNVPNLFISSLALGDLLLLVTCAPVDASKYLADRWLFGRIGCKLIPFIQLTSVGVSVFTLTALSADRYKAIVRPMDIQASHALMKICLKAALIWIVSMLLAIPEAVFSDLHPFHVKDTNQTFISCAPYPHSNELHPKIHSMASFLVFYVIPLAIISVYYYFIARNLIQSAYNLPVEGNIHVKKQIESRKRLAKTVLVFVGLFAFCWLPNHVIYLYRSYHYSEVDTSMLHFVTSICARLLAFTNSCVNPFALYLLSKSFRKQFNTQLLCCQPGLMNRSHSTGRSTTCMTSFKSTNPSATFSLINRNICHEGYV

CNC(=O)[C@H](CC(C)C)NC(=O)[C@H](Cc1c[nH]cn1)NC(=O)[C@@H](C)NC(=O)[C@@H](NC(=O)[C@H](C)NC(=O)[C@H](Cc1c[nH]c2ccccc12)NC(=O)[C@H](Cc1c[nH]cn1)NC(C)=O)C(C)C [Ac-His-Trp-Ala-Val-D-Ala-His-Leu-NHMe] (Ac-HWAV[dA]HL-NHMe)
IC50 [1]: 19.5 nM
IC50 [2]: 28 nM
IC50 in test (c) [3]: < 2 mg/kg

[D-Glp^7, D-Ala^11, Ala^14 ]bombesin (7-14)
antagonism of bombesin-induced hypothermia [4]: partial antagonist

[D-Phe^12 ]bombesin
bombesin-stimulated secretion of amylase [5]: inhibited

COC(=O)[C@H](CC(C)C)NC(=O)[C@H](CCCCNC(=O)OCc1ccccc1)NC(=O)[C@@H](C)NC(=O)[C@@H](NC(=O)[C@H](C)NC(=O)[C@H](Cc1c[nH]c2ccccc12)NC(=O)[C@H](Cc1c[nH]cn1)NC(C)=O)C(C)C [Ac-His-Trp-Ala-Val-D-Ala-Lys(Z)-Leu-OMe] (Ac-HWAV[dA]K(Cbz)L-OMe)
IC50 [2]: 0.1 nM
IC50 in test (c) [3]: 0.1 mg/kg

[D-Phe^12, Leu^14 ]bombesin
bombesin-stimulated secretion of amylase [5]: inhibited

[Tyr^4, D-Phe^12 ]bombesin
bombesin-stimulated secretion of amylase [5]: inhibited
